Results reported in patent US11324744B2, “Methods of use and pharmaceutical combinations of histone deacetylase inhibitors and CD20 inhibitory antibodies” (Acetylon Pharmaceuticals Inc., priority 2016, dated 2022).

Tests used:
[1] = tested on: CD20 in Raji cells; test: Cell surface abundance of CD20 by staining and flow cytometry in Raji cells; type: cell-based, human; details: 0.25-4.0 μM, 48 hours, MFI, FIG. 2A/2B
Protocol: (§1) Cells were treated with increasing concentrations of Compound A (i.e., 0.25 μM, 0.5 μM, 1.0 μM, 2.0 μM, and 4.0 μM) for 48 hours and processed for cell surface abundance of CD20 protein and mRNA in Raji cells. The treated Raji cells were stained for IgG2bK-APC and CD20-APC. The dotted line indicates median of DMSO treatment. The quantification of mean fluorescence intensity (MFI) following cell surface staining and flow cytometry of Raji cells is shown in FIG. 2B. Each sample was background subtracted, where the IgG2bK-APC median MFI in Raji cells was used as the background. […] Together, increased CD20 expression triggered by Compound A can be a potential mechanism for the in vivo combination effect on the Raji cell model. Compound A induced CD20 mRNA expression and cell surface abundance of CD20 on Raji cells. That can be a potential mechanism for the synergistic effect of Compound A with rituximab.

[2] = tested on: CD20 mRNA in Raji cells; test: CD20 mRNA expression relative to RPLP1 in Raji cells; type: cell-based, human; details: 0.25-4.0 μM, 48 hours, FIG. 2D
Protocol: as §1

[3] = tested on: CD20 in Jeko cells; test: Cell surface abundance of CD20 by staining and flow cytometry in Jeko cells; type: cell-based; details: 0.25-4.0 μM, 48 hours, MFI, FIG. 3A/3B
Protocol: (§2) Cells were treated with increasing concentrations of Compound A (i.e., 0.25 μM, 0.5 μM, 1.0 μM, 2.0 μM, and 4.0 μM) for 48 hours and processed for cell surface abundance of CD20 protein and mRNA in Jeko cells. The treated Jeko cells were stained for IgG2bK-APC and CD20-APC. The dotted line indicates median of DMSO treatment. The quantification of mean fluorescence intensity (MFI) following cell surface staining and flow cytometry of Jeko cells is shown in FIG. 3B. Each sample was background subtracted, where the IgG2bK-APC median MFI in Jeko cells was used as the background. […] Compound A induced CD20 mRNA expression and cell surface abundance of CD20 on Jeko cells. That can be a potential mechanism for the synergistic effect of Compound A with rituximab.

[4] = tested on: CD20 mRNA in Jeko cells; test: CD20 mRNA expression relative to RPLP1 in Jeko cells; type: cell-based; details: 0.25-4.0 μM, 48 hours, FIG. 3D
Protocol: as §2

O=C(CCCCCCNC(=O)c1cnc(N(c2ccccc2)c2ccccc2Cl)nc1)NO [Compound A, 2-((2-chlorophenyl)(phenyl)amino)-N-(7-(hydroxyamino)-7-oxoheptyl)pyrimidine-5-carboxamide]
induced: cell surface abundance of CD20 [1] | CD20 mRNA expression [2] | cell surface abundance of CD20 [3] | CD20 mRNA expression [4]
